Earlier results in patent US7393954B2 (Reliable Biopharmaceutical Corporation, priority 2002, dated 2008).

Experiments:
[1] = system: chronic lymphocytic leukemia; settings: result in words
hairy cell leukemia = settings: result in words

**Q.** For `OC[C@H]1O[C@@H](n2cnc3c2N=CNC[C@H]3O)C[C@@H]1O` [Pentostatin], which “efficacy against chronic lymphocytic leukemia” value [1] is on record?
**A.** Its value is “effective”.

**Q.** What about the “efficacy in treatment of interferon-refractory hairy cell leukemia” value (hairy cell leukemia; interferon-refractory, approved agent) of the same molecule?
**A.** The value was “highly effective”.

**Q.** What about the “efficacy against hairy cell leukemia” value (hairy cell leukemia) of the same molecule?
**A.** Its value is “effective”.
